Where a name gives a salt, the structure may show the parent alone.

One test has as its target T1, human factor XIa (Homo sapiens, UniProt P03951).
T1 construct: purchased Kordia
Description: Measurement of FXIa inhibition (fluorogenic peptide substrate Boc-Glu(OBzl)-Ala-Arg-AMC). In kind it is biochemical. Conditions: factor XIa from Kordia 0.45 nM, 15 min pre-incubation, 30 min at 22° C., fluorescence. The method, then:
The factor XIa inhibition of the substances according to the invention is determined using a biochemical test system which utilizes the reaction of a peptidic factor XIa substrate to determine the enzymatic activity of human factor XIa. Here, factor XIa cleaves from the peptic factor XIa substrate the C-terminal aminomethylcoumarin (AMC), the fluorescence of which is measured. The determinations are carried out in microtitre plates.
Test substances are dissolved in dimethyl sulphoxide and serially diluted in dimethyl sulphoxide (3000 μM to 0.0078 μM; resulting final concentrations in the test: 50 μM to 0.00013 μM). In each case 1 μl of the diluted substance solutions is placed into the wells of white microtitre plates from Greiner (384 wells). Subsequently, the following are added successively: 20 μl of assay buffer (50 mmol/l Tris buffer pH 7.4; 100 mmol/l sodium chloride; 5 mmol/l calcium chloride; 0.1% bovine serum albumin) and 20 μl of factor XIa from Kordia (0.45 nM in assay buffer). After 15 min of incubation, the enzyme reaction is started by addition of 20 μl of the factor XIa substrate Boc-Glu(OBzl)-Ala-Arg-AMC dissolved in assay buffer (10 μM in assay buffer) from Bachem, the mixture is incubated at room temperature (22° C.) for 30 min and fluorescence is then measured (excitation: 360 nm, emission: 460 nm). The measured emissions of the test batches with test substance are compared to those of control batches without test substance (only dimethyl sulphoxide instead of test substance in dimethyl sulphoxide), and IC50 values are calculated from the concentration/activity relationships.

A further test relates to human and animal plasma. Description: Determination of anticoagulatory activity: activated partial thromboplastin time (aPTT) in plasma. The note with it: concentration of test substance which brings about a 1.5-fold extension of the aPTT; plasma in vitro, C.K. Prest kit. The method, then:
The anticoagulatory activity of the test substances is determined in vitro in human and animal plasma (for example mouse, rat, rabbit, pig and dog plasma). To this end, blood is drawn off in a mixing ratio of sodium citrate/blood of 1:9 using a 0.11 molar sodium citrate solution as receiver. Immediately after the blood has been drawn off, it is mixed thoroughly and centrifuged at about 4000 g for 15 minutes. The supernatant is pipetted off.
The activated partial thromboplastin time (aPTT) is determined in the presence of varying concentrations of test substance or the corresponding solvent using a commercial test kit (C.K. Prest from Diagnostica Stago). The test compounds are incubated with the plasma and the PTT reagent (cephalin, kaolin) at 37° C. for 3 minutes. Coagulation is then started by addition of a 25 mM aqueous calcium chloride solution, and the time when coagulation occurs is determined. The concentration of test substance which brings about a 1.5-fold extension of the aPTT is determined.

T1 sequence (P03951 388-625 limits assumed): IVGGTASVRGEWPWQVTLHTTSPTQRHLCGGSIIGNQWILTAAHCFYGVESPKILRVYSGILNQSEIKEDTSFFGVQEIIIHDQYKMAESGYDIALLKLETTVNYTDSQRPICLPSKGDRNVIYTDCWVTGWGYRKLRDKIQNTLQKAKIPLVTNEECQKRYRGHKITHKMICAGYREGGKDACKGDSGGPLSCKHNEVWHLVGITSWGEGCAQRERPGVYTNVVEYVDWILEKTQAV
T1 sequence (P03951 19-387 partner limits assumed): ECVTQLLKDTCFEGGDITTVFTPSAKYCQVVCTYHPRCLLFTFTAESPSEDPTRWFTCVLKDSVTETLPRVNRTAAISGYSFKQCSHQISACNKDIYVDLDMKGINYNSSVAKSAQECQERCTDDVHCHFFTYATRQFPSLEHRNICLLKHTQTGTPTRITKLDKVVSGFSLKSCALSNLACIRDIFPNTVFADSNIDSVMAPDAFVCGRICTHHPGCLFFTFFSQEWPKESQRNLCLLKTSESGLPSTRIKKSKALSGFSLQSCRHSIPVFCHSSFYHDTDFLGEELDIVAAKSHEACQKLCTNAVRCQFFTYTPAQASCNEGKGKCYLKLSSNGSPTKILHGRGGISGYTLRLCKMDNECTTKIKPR

`CCN(CC)CCNC(=O)c1ccc(-c2cccc(C[C@H](NC(=O)[C@H]3CC[C@H](CN)CC3)C(=O)Nc3ccc(-c4nnn[nH]4)cc3)c2)cc1` [Example 42, 3′-[(2S)-2-({[trans-4-(Aminomethyl)cyclohexyl]carbonyl}amino)-3-oxo-3-{[4-(1H-tetrazol-5-yl)phenyl]amino}propyl]-N-[2-(diethylamino)ethyl]biphenyl-4-carboxamide hydrochloride]: inhibition against human factor XIa was half-maximal at 11 nM (IC50). For the same compound, the aPTT in the test on human and animal plasma was 0.35 µmol/L.

Regarding `Cc1ccc(C[C@H](NC(=O)[C@H]2CC[C@H](CN)CC2)C(=O)Nc2ccc(-c3nnn[nH]3)cc2)cc1-c1cccc(C(=O)N2CCOCC2)c1` [Example 17, trans-4-(Aminomethyl)-N-[(2S)-3-[6-methyl-3′-(morpholin-4-ylcarbonyl)biphenyl-3-yl]-1-oxo-1-{[4-(1H-tetrazol-5-yl)phenyl]amino}propan-2-yl]cyclohexanecarboxamide hydrochloride], the IC50 at human factor XIa is 4.1 nM. Further, the aPTT in the test with human and animal plasma is 0.19 µmol/L.

On human factor XIa, `CNC(=O)c1ccc(F)c(-c2cccc(C[C@H](NC(=O)[C@H]3CC[C@H](CN)CC3)C(=O)Nc3ccc(-c4nnn[nH]4)cc3)c2)c1` [Example 62, 3′-[(2S)-2-({[trans-4-(Aminomethyl)cyclohexyl]carbonyl}amino)-3-oxo-3-{[4-(1H-tetrazol-5-yl)phenyl]amino}propyl]-6-fluoro-N-methylbiphenyl-3-carboxamide hydrochloride] came in with an IC50 of 6.2 nM. This compound also showed an aPTT with human and animal plasma of 0.48 µmol/L. The corresponding values for `CN1CCN(C(=O)c2ccc(-c3cccc(C[C@H](NC(=O)[C@H]4CC[C@H](CN)CC4)C(=O)Nc4ccc(-c5nnn[nH]5)cc4)c3)cc2)CC1` [Example 46, trans-4-(Aminomethyl)-N-[(2S)-3-{4′-[(4-methylpiperazin-1-yl)carbonyl]biphenyl-3-yl}-1-oxo-1-{[4-(1H-tetrazol-5-yl)phenyl]amino}propan-2-yl]cyclohexanecarboxamide hydrochloride] are 7.9 nM and 0.32 µmol/L. For `CN1CCN(c2ncc(-c3cccc(C[C@H](NC(=O)[C@H]4CC[C@H](CN)CC4)C(=O)Nc4ccc(-c5nnc(Cl)[nH]5)cc4)c3)cn2)CC1` [Example 91, N-alpha-{[trans-4-(Aminomethyl)cyclohexyl]carbonyl}-N-[4-(3-chloro-4H-1,2,4-triazol-5-yl)phenyl]-3-[2-(4-methylpiperazin-1-yl)pyrimidin-5-yl]-L-phenylalaninamide hydrochloride], inhibition on human factor XIa was half-maximal at 3.5 nM (IC50). In addition, in the test on human and animal plasma, the aPTT was found to be 0.06 µmol/L. As to `NC[C@H]1CC[C@H](C(=O)N[C@@H](Cc2cccc(-c3cnccc3Cl)c2)C(=O)Nc2ccc(-c3noc(=O)[nH]3)cc2)CC1` [Example 107, N-alpha-{[trans-4-(Aminomethyl)cyclohexyl]carbonyl}-3-(4-chloropyridin-3-yl)-N-[4-(5-oxo-4,5-dihydro-1,2,4-oxadiazol-3-yl)phenyl]-L-phenylalaninamide hydrochloride], half-maximal inhibition against human factor XIa (IC50) required 6.2 nM. For the same compound, the aPTT with human and animal plasma came out at 0.7 µmol/L.

Compound `COCCOCCOCCNC(=O)c1ccc(-c2cccc(C[C@H](NC(=O)[C@H]3CC[C@H](CN)CC3)C(=O)Nc3ccc(-c4nnn[nH]4)cc3)c2)c(C)c1` [Example 22, 3′-[(2S)-2-({[trans-4-(Aminomethyl)cyclohexyl]carbonyl}amino)-3-oxo-3-{[4-(1H-tetrazol-5-yl)phenyl]amino}propyl]-N-{2-[2-(2-methoxyethoxy)ethoxy]ethyl}-2-methylbiphenyl-4-carboxamide hydrochloride] gave an IC50 on human factor XIa of 2.4 nM. In the test on human and animal plasma, this compound yielded an aPTT of 0.34 µmol/L. As to `COc1ccc(C[C@H](NC(=O)[C@H]2CC[C@H](CN)CC2)C(=O)Nc2ccc(-c3nn[nH]n3)cc2)cc1-c1ccc(C(=O)N[C@@H]2CCNC2)cc1C` [Example 57, 5′-[(2S)-2-({[trans-4-(Aminomethyl)cyclohexyl]carbonyl}amino)-3-oxo-3-{[4-(2H-tetrazol-5-yl)phenyl]amino}propyl]-2′-methoxy-2-methyl-N-[(3R)-pyrrolidin-3-yl]biphenyl-4-carboxamide hydrochloride], at human factor XIa, it took 17 nM to reach half-maximal inhibition (IC50). Further, the aPTT with human and animal plasma turned out to be 0.3 µmol/L.

`Cc1ccc(S(=O)(=O)N2CCCC2)cc1-c1cccc(C[C@H](NC(=O)[C@H]2CC[C@H](CN)CC2)C(=O)Nc2ccc(-c3nnn[nH]3)cc2)c1` [Example 2, trans-4-(Aminomethyl)-N-[(2S)-3-[2′-methyl-5′-(pyrrolidin-1-ylsulphonyl)biphenyl-3-yl]-1-oxo-1-{[4-(1H-tetrazol-5-yl)phenyl]amino}propan-2-yl]cyclohexanecarboxamide hydrochloride]: on human factor XIa, the IC50 was found to be 1.1 nM. In addition, the aPTT in the test with human and animal plasma stood at 0.08 µmol/L. The corresponding values for `Cc1nc(N)ncc1-c1cccc(C[C@H](NC(=O)[C@H]2CC[C@H](CN)CC2)C(=O)Nc2ccc(-c3nnn[nH]3)cc2)c1` [Example 95, N-alpha-{[trans-4-(Aminomethyl)cyclohexyl]carbonyl}-3-(2-amino-4-methylpyrimidin-5-yl)-N-[4-(1H-tetrazol-5-yl)phenyl]-L-phenylalaninamide hydrochloride] are 5.4 nM and 0.24 µmol/L.

As for `CC(C)N1CCC(NC(=O)c2cccc(-c3cccc(C[C@H](NC(=O)[C@H]4CC[C@H](CN)CC4)C(=O)Nc4ccc(-c5nnc(Cl)[nH]5)cc4)c3)c2)CC1` [Example 30, 3′-[(2S)-2-({[trans-4-(Aminomethyl)cyclohexyl]carbonyl}amino)-3-{[4-(3-chloro-4H-1,2,4-triazol-5-yl)phenyl]amino}-3-oxopropyl]-N-[1-(propan-2-yl)piperidin-4-yl]biphenyl-3-carboxamide hydrochloride], the IC50 at human factor XIa is 5.8 nM. The same compound returned an aPTT with human and animal plasma of 0.34 µmol/L. In the test with human and animal plasma, `Cc1cnccc1-c1cccc(C[C@H](NC(=O)[C@H]2CC[C@H](CN)CC2)C(=O)Nc2ccc(-c3n[nH]c(=O)[nH]3)cc2)c1` [Example 89, N-alpha-{[trans-4-(Aminomethyl)cyclohexyl]carbonyl}-3-(3-methylpyridin-4-yl)-N-[4-(5-oxo-4,5-dihydro-1H-1,2,4-triazol-3-yl)phenyl]-L-phenylalaninamide hydrochloride] gave an aPTT of 0.46 µmol/L. At human factor XIa, `Cc1cc(C(=O)NC2CCNCC2)ccc1-c1cccc(C[C@H](NC(=O)[C@H]2CC[C@H](CN)CC2)C(=O)Nc2ccc(-c3nnn[nH]3)cc2)c1` [Example 15, 3′-[(2S)-2-({[trans-4-(Aminomethyl)cyclohexyl]carbonyl}amino)-3-oxo-3-{[4-(1H-tetrazol-5-yl)phenyl]amino}propyl]-2-methyl-N-(piperidin-4-yl)biphenyl-4-carboxamide hydrochloride] registered an IC50 of 7.7 nM.

In the case of `CN(C)c1ncc(-c2cccc(C[C@H](NC(=O)[C@H]3CC[C@H](CN)CC3)C(=O)Nc3ccc4[nH]c(=O)[nH]c4c3)c2)cn1` [Example 73, N-alpha-{[trans-4-(Aminomethyl)cyclohexyl]carbonyl}-3-[2-(dimethylamino)pyrimidin-5-yl]-N-(2-oxo-2,3-dihydro-1H-benzimidazol-5-yl)-L-phenylalaninamide hydrochloride], on human factor XIa, the IC50 is 25 nM. Still for that read-out and setting: under `Cc1cc(C(=O)N[C@@H]2CCCNC2=O)ccc1-c1cccc(C[C@H](NC(=O)[C@H]2CC[C@H](CN)CC2)C(=O)Nc2ccc3nc(C(F)(F)C(F)(F)F)[nH]c3c2)c1` [Example 63, 3′-[(2S)-2-({[trans-4-(Aminomethyl)cyclohexyl]carbonyl}amino)-3-oxo-3-{[2-(pentafluoroethyl)-1H-benzimidazol-6-yl]amino}propyl]-2-methyl-N-[(3R)-2-oxopiperidin-3-yl]biphenyl-4-carboxamide hydrochloride] stands 52 nM; under `NC[C@H]1CC[C@H](C(=O)N[C@@H](Cc2cccc(-c3ccnc(N4CCOCC4)c3)c2)C(=O)Nc2ccc(-c3nn[nH]n3)cc2)CC1` [Example 85, N-alpha-{[trans-4-(Aminomethyl)cyclohexyl]carbonyl}-3-[2-(morpholin-4-yl)pyridin-4-yl]-N-[4-(2H-tetrazol-5-yl)phenyl]-L-phenylalaninamide hydrochloride], 2.4 nM.

For the origin of these results see patent US20160244437A1, “SUBSTITUTED PHENYLALANINE DERIVATIVES” (BAYER PHARMA AKTIENGESELLSCHAFT, priority 2013, published 2016).
